Experimental data taken from patent US20240122182A1, “PESTICIDALLY ACTIVE HETEROCYCLIC DERIVATIVES WITH SULFUR CONTAINING SUBSTITUENTS” (SYNGENTA CROP PROTECTION AG, priority 2021, published 2024).

Key:
Assay type in all cases: in vivo
[1] = system: Euschistus heros (Neotropical Brown Stink Bug); test: Activity against Euschistus heros (neotropical brown stink bug), soybean leaves sprayed; settings: 120 h, application rate of 200 ppm, N2 nymphs, 5 days after infestation, read-out: effect in at least one of the two categories (mortality or growth inhibition)
Protocol: Soybean leaves on agar in 24-well microtiter plates were sprayed with aqueous test solutions prepared from 10′000 ppm DMSO stock solutions. After drying the leaves were infested with N2 nymphs. The samples were assessed for mortality and growth inhibition in comparison to untreated samples 5 days after infestation.

[2] = system: Myzus persicae (Green Peach Aphid); test: Activity against Myzus persicae (green peach aphid), feeding/contact activity; settings: 144 h, application rate of 200 ppm, mixed ages, 6 days after infestation
Protocol: Sunflower leaf discs were placed onto agar in a 24-well microtiter plate and sprayed with aqueous test solutions prepared from 10′000 ppm DMSO stock solutions. After drying, the leaf discs were infested with an aphid population of mixed ages. The samples were assessed for mortality 6 days after infestation.

[3] = system: Chilo suppressalis (Striped Rice Stemborer); test: Activity against Chilo suppressalis (striped rice stemborer), artificial diet; settings: 144 h, application rate of 200 ppm, L2 larvae, 6 days after infestation, read-out: control (mortality, anti-feeding effect, growth inhibition)
Method in brief: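 Artificial diet in wells was treated with aqueous test solutions diluted from 10'000 ppm DMSO stocks, dried, then infested with 6-8 L2 larvae per well. Mortality, anti-feeding effect and growth inhibition were scored against untreated samples 6 days after infestation; control means any category exceeds the untreated sample.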

[4] = system: Plutella xylostella (Diamond Back Moth); test: Activity against Plutella xylostella (diamond back moth), artificial diet; settings: 192 h, application rate of 200 ppm, eggs, 8 days after infestation, read-out: effect in at least one of the two categories (mortality or growth inhibition)
Protocol: 24-well microtiter plates with artificial diet were treated with aqueous test solutions prepared from 10′000 ppm DMSO stock solutions by pipetting. After drying, Plutella eggs were pipetted through a plastic stencil onto a gel blotting paper and the plate was closed with it. The samples were assessed for mortality and growth inhibition in comparison to untreated samples 8 days after infestation.

[5] = system: Spodoptera littoralis (Egyptian Cotton Leaf Worm); test: Activity against Spodoptera littoralis (Egyptian cotton leaf worm), cotton leaf discs sprayed; settings: foliar, 72 h, application rate of 200 ppm, L1 larvae, 3 days after infestation, read-out: control (mortality, anti-feeding effect, growth inhibition)
Method in brief: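 Cotton leaf discs on agar were sprayed with aqueous test solutions made from 10′000 ppm DMSO stocks, dried, then infested with five L1 larvae. Mortality, anti-feeding effect and growth inhibition were scored against untreated discs 3 days after infestation; control means any category exceeds untreated.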

[6] = system: Frankliniella occidentalis (Western Flower Thrips); test: Activity against Frankliniella occidentalis (western flower thrips), sunflower leaf discs sprayed; settings: foliar, 168 h, application rate of 200 ppm, population of mixed ages, 7 days after infestation
Protocol: Sunflower leaf discs were placed on agar in 24-well microtiter plates and sprayed with aqueous test solutions prepared from […] stock solutions. After drying the leaf discs were infested with a Frankliniella population of mixed ages. The samples were assessed for mortality 7 days after infestation.

[7] = system: Diabrotica Balteata (Corn Root Worm); test: Activity against Diabrotica balteata (corn root worm), maize sprouts sprayed; settings: 96 h, application rate of 200 ppm, L2 larvae, 4 days after infestation, read-out: effect in at least one of the two categories (mortality or growth inhibition)
Method in brief: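 Larvae at L2 stage, 6 to 10 per well, feed on dried, spray-treated maize sprouts set on agar. Evaluation after 4 days compares mortality and growth inhibition with untreated samples.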

[8] = system: Tetranychus urticae (Two-Spotted Spider Mite); test: Activity against Tetranychus urticae (two-spotted spider mite), bean leaf discs sprayed; settings: foliar, 192 h
Protocol: Bean leaf discs on agar in 24-well microtiter plates were sprayed with aqueous test solutions prepared from 10′000 ppm DMSO stock solutions. After drying the leaf discs were infested with a mite population of mixed ages. The samples were assessed for mortality on mixed population (mobile stages) 8 days after infestation.

[9] = system: Nilaparvata lugens (Brown Plant Hopper); test: Activity against Nilaparvata lugens (brown plant hopper), larvicide, systemic into water; settings: 168 h, application rate of 12.5 ppm, N3 nymphs, 7 days after infestation
Protocol: Larvicide, systemic into water Rice plants cultivated in a nutritive solution were treated with the diluted test solutions into nourishing cultivation system. 1 day after application plants were infested with ˜20 N3 nymphs. 7 days after infestation samples were assessed for mortality and growth regulation.

[10] = system: Carpocapsa (Cydia) Pomonella (Codling Moth); test: Activity against Carpocapsa (Cydia) pomonella (codling moth), larvicide, feeding/contact; settings: 336 h, application rate of 12.5 ppm, L1 larvae, 14 days after infestation, read-out: effect in at least one of the two categories (mortality or growth inhibition)

CCSc1cc(C2(C#N)CC2)cnc1-c1cc2c(cn1)N(CC(F)(F)C(F)(F)F)C(=O)OC2 [P4, 1-[5-ethylsulfanyl-6-[2-oxo-1-(2,2,3,3,3-pentafluoropropyl)-4H-pyrido[3,4-d][1,3]oxazin-6-yl]-3-pyridyl]cyclopropanecarbonitrile]
≥ 80%: percent effect (mortality or growth inhibition) at 200 ppm [1] | mortality at 200 ppm [2] | mortality at 200 ppm [3] | percent effect (mortality or growth inhibition) at 200 ppm [4] | mortality at 200 ppm [5] | mortality at 200 ppm [6] | percent effect (mortality or growth inhibition) at 200 ppm [7]

CCS(=O)(=O)c1cc(C(C)(C)F)cnc1-c1cc2c(cn1)N(CC(F)(F)C(F)(F)F)C(=O)CC2 [P23, 6-[3-ethylsulfonyl-5-(1-fluoro-1-methyl-ethyl)-2-pyridyl]-1-(2,2,3,3,3-pentafluoropropyl)-3,4-dihydro-1,7-naphthyridin-2-one]
≥ 80%: mortality at 200 ppm [8] | percent effect (mortality or growth inhibition) at 200 ppm [1] | mortality at 200 ppm [3] | mortality at 12.5 ppm [9] | percent effect (mortality or growth inhibition) at 200 ppm [4] | mortality at 200 ppm [5] | percent effect (mortality or growth inhibition) at 12.5 ppm [10] | percent effect (mortality or growth inhibition) at 200 ppm [7]
